Data on 1 compound can be found in paper PMC3663763, “The novel BH3 α-helix mimetic JY-1-106 induces apoptosis in a subset of cancer cells (lung cancer, colon cancer and mesothelioma) by disrupting Bcl-xL and Mcl-1 protein–protein interactions with Bak” (Molecular Cancer, 2013).

The structures appear in SMILES notation.

The target in one assay is T1, Bcl-xL (Homo sapiens, UniProt Q07817).
T1 construct: gene BCL2L1; endogenous Bcl-xL
Kind of assay: co-immunoprecipitation: displacement of Bak from endogenous Bcl-xL in REN cells at […]. It is filed as cell-based.

For a further assay, the target named is T2, Mcl-1 (Homo sapiens, UniProt Q07820).
T2 construct: gene MCL1
Kind of assay: fluorescence polarization competition with FITC-Bak-BH3 peptide, […] Mcl-1 (IC50 […]); supported by co-IP in REN cells. The format is binding.

T1 sequence (Q07817 whole entry): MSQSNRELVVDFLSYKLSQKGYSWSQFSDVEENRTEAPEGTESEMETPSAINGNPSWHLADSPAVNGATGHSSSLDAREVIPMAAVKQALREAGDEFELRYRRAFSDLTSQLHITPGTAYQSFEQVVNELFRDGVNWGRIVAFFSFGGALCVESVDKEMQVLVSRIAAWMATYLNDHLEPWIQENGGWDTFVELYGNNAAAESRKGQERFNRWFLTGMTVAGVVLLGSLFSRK
T1 sequence (Q16611 2-211 partner): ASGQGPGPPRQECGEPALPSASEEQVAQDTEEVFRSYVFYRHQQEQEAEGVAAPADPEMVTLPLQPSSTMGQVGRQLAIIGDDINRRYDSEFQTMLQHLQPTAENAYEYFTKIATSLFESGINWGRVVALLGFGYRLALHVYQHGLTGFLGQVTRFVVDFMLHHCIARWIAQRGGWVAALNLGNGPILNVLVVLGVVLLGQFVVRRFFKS
T2 sequence (Q07820 whole entry): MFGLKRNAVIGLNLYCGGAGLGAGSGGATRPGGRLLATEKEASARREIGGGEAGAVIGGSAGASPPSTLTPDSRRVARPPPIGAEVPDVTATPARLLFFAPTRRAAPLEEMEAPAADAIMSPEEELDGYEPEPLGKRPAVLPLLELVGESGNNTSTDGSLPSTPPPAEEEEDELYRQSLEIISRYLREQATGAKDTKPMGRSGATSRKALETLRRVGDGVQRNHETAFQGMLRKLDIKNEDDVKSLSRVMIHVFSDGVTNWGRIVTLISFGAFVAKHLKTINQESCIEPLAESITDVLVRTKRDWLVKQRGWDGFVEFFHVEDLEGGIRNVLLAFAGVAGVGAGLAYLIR

As a reminder, the Ki is the dissociation constant of the complex between target and ligand, obtained from inhibition or displacement. A lower Ki goes with a stronger hold on the target. For `CC(C)Oc1cc(C(=O)Nc2ccc(C(=O)Nc3ccc(C(=O)O)cc3OC(C)C)nc2OC(C)C)ccc1N` [JY-1-106], on Bcl-xL, the “co-immunoprecipitation: displacement of Bak from endogenous Bcl-xL in REN cells” value is “JY-1-106 as well as ABT-737 can effectively displace Bak from its inhibitory binding with Bcl-xL”. For the same compound, the Ki on Mcl-1 came out at 1790 ± 150 nM.
